Experiments:
Assay type in all cases: cell-based
MET = MET activation and downstream signaling in DU145 cells (immunoblotting); settings: 30 minutes; for fibroblast-induced MET activation and signaling / MET activation induced by active HGF: serum-starved DU145 cells, SRI 31215 10 μM, JNJ 38877605 1 μM; for fibroblast-induced MET activation and signaling: 18Co conditioned media
Experimental: Figure 2 SRI 31215 inhibits the crosstalk between tumor cells and fibroblasts A. Inhibition of fibroblast-induced oncogenic signaling in tumor cells by SRI 31215. Serum-starved DU145 cells were treated with recombinant HGF or conditioned media from 18Co cells alone or in the presence of SRI 31215 (10 μM) or JNJ 38877605 (1 μM) for 30 minutes. The levels of pMET, pGab1, pAKT, pERK, and pSTAT3 were determined by immunoblotting. Specific bands for pMET and pGab1 are indicated by asterisks. B. Inhibition of fibroblast-induced cell scattering by SRI 31215. Scattering of DU145 cells was induced with recombinant HGF or with conditioned media from 18Co fibroblasts in the presence of SRI 31215 (10 μM) or JNJ 38877605 (1 μM) as indicated. Images were taken 24 hours after treatment.
Immunoblotting was performed using standard procedures. Membranes were blocked with 5% non-fat milk for 1 hour at RT, and incubated with primary antibodies overnight at 4°C. Primary antibodies used were anti-HGF (R&D Systems), anti-MET, anti-p-MET, anti-p-GAB1, anti-p-AKT, anti-p-ERK1/2, anti-vimentin (Cell Signaling Technology), anti-p-STAT3 (Upstate Cell Signaling Solutions), anti-E-cadherin (BD Transduction Laboratories), anti-β-actin (Sigma). Following washing with TBS-T buffer, membranes were incubated with horseradish peroxidase-conjugated secondary antibodies for 1 hour and then washed with TBS-T. Immunoblots were developed using the chemiluminescent detection system with ECL (Amersham). Protein loading was normalized by probing blots for the expression of β-actin.
Supplementary Figure S2: Dose-dependent inhibition of fibroblast induced MET activation by SRI 31215. DU145 cells were serum-starved and were treated with conditioned medium from 18Co fibroblasts for 30 minutes in the absence or the presence of increasing concentrations of SRI 31215 as indicated. The levels of pERK1/2, pAKT, pSTAT3 and β-actin were determined by […]
(also on this page, place not known: www.impactjournals.com/oncotarget/ Oncotarget, Materials 2016 Supplementary) […]

DiFi cells [1] = assay: Proliferation of DiFi cells induced by HGF or fibroblast conditioned medium; settings: 48 hours; for fibroblast-induced proliferation: fibroblast conditioned medium
Experimental: Cell lysates from EBC cells were used as control for pMET. B. DiFi cells were cultured in the presence of
HGF or fibroblast conditioned medium in the absence or the presence of JNJ38877605 or SRI 31215 for 48 hours. Neutralization of HGF
in fibroblast conditioned medium by anti-HGF antibodies inhibits growth promoting activity of fibroblasts (data not shown). […]

DU145 cells = assay: Cell scattering assay; settings: 24 hours, SRI 31215 10 μM; for fibroblast-induced cell scattering: 18Co conditioned media, JNJ 38877605 1 μM
Experimental: DU145 cells were cultured in 6-well tissue culture plates at a density of 1×10^3 cells per well. After colonies formed (6-8 days), cells were serum-starved overnight and were then treated with recombinant HGF (10 ng/ml) or with conditioned media from 18Co fibroblasts in the presence or absence of SRI 31215 (10 μM) or the MET kinase inhibitor JNJ 38877605 (1 μM) for 24 hours. Cells were washed with PBS and colonies were fixed and stained with 0.5% crystal violet solution in 6% glutaraldehyde.

Caco2 cells = assay: Response of Caco2 cells to EGFR inhibitors with fibroblast conditioned medium; settings: SRI 31215 10 μM, JNJ 38877605 1 μM; for response to cetuximab in the presence of fibroblast-derived CM: 18Co CM; for fibroblast-mediated resistance to gefitinib: 18Co conditioned medium
Experimental: Figure 5 Inhibitors of HGF/MET signaling prevent the innate and acquired resistance to cetuximab A. and B. RKO cells were treated with cetuximab (50 μg/ml) (A) of gefitinib (B) alone, or in combination with SRI 31215 (10 μM), JNJ 38877605 (1 μM) or recombinant HAI-1 (20 nM) as indicated and clonogenic growth was monitored as described in Materials and Methods. C. and D. Caco2 cells were treated with cetuximab or gefitinib alone or in the presence of CM from fibroblasts and SRI 31215 (10 μM) or JNJ 38877605 (1 μM) as indicated. #: p<0.05, compared to control (CTRL); NS: not significant.
(§1) Cell titer-glo luminescent cell viability assay kit was purchased from Promega. […] For clonogenic assay, cells were seeded in 6-well plates at a density of 400 cells per well, serum starved overnight, and treated as indicated. After colony formation (8-12 days), cells were stained with crystal violet and the number of colonies was determined using ImageQuantTL (GE Health Care Life Sciences).

DiFi cells [2] = assay: Caspase-Glo 3/7 Assay; settings: fibroblast conditioned medium, 18h
Experimental: Figure 6 Fibroblasts inhibit the proapoptotic activity of EGFRi in an HGF-dependent manner A. and B. DiFi cells were treated with gefitinib (0.5 μM) or cetuximab (0.5 μg/ml) in the absence or the presence of conditioned medium from fibroblasts and SRI 31215 and JNJ 38877605 as indicated. The viability was determined after 72 hours. In B, fibroblast conditioned medium was incubated with anti HGF or anti-IL1β antibodies. C. and D. DiFi cells were treated with gefitinib (C) or cetuximab (D) in the presence of conditioned medium from fibroblasts and inhibitors of HGF/MET signaling as indicated for 18h. Caspase activity was assessed by the Caspase-Glo 3/7 Assay from Promega.
DiFi cells were seeded at a density of 20,000 cells/well in a 96 well plate and were treated with EGFRi in the absence or the presence of SRI 31215 or JNJ 38877605 for 18h. Caspase activity was assessed by the Caspase-Glo 3/7 Assay from Promega following the manufacturer's instructions.

RKO cells = assay: Basal, constitutive migration of RKO cells; settings: data not shown
Experimental: Cancer cells were seeded in 12-well plates and allowed to reach confluence. Following overnight serum-starvation, a scratch/wound was introduced into the cell monolayer with a sterile tip. Cells were cultured in serum-free media or were treated with recombinant HGF (10 ng/ml) or serum-free conditioned media from fibroblasts (50%) in the presence or absence of SRI 31215 or JNJ 38877605. Images of migrating cells were captured at 0, 12 and 24 hours after the treatment.

HT29 cells = assay: Viability of HT29 cells with EGFR inhibitor; settings: HT29 cells (HGF-), gefitinib 5 μM; SRI 31215 10 μM, JNJ 38877605 1 μM
Experimental: as §1
Supplementary Figure S3: Inhibition of HGF/MET signaling sensitizes HGF-producing RKO colon cancer cells to gefitinib. A. RKO cells (HGF+) and B. HT29 (HGF-) cells were treated with gefitinib (5 μM) in the absence or the presence of SRI 31215 (10 μM) or JNJ 38877605 (1 μM) as indicated and viability was determined 24 and 72 hours after treatment. # indicates statistical significance compared to samples treated with gefitinib alone as determined by Students’ t-test (p<0.05).
(also on this page, place not known: www.impactjournals.com/oncotarget/ Oncotarget, Materials 2016 Supplementary (HGF +) (HGF -)) […]

Row | SMILES | fibroblast-induced MET activation and signaling (MET) | MET activation induced by active HGF (MET) | proliferation induced by recombinant, active HGF (DiFi cells [1]) | fibroblast-induced proliferation (DiFi cells [1]) | fibroblast-induced cell scattering (DU145 cells) | response to cetuximab in the presence of fibroblast-derived CM (Caco2 cells) | fibroblast-mediated resistance to gefitinib (Caco2 cells) | gefitinib-induced activation of caspase 3 and caspase 7 in the presence of fibroblasts (DiFi cells [2]) | basal, constitutive migration (RKO cells) | response to EGFRi (HT29 cells) | fibroblast-induced ERK1/2, AKT and STAT3 activation (MET; DU145 cells, 18Co conditioned medium, increasing concentrations, dose-dependent) | scattering induced by active HGF (DU145 cells)
1 | Cn1cc(-c2ccc3nnc(C(F)(F)c4ccc5ncccc5c4)n3n2)cn1 [JNJ 38877605, reference compound] | prevented | prevented | prevented | prevented | prevented | restored the response | overcame | restored | inhibit | did not improve | – | –
2 | CC1CN(CC2CCN(Cc3ccccc3)CC2)C(=O)N(c2cccc(C(=N)N)c2)C1 (stereo not shown) [SRI 31215, 3-(3-((1-benzylpiperidin-4-yl)methyl)-5-methyl-2-oxotetrahydropyrimidin-1(2H)-yl)benzimidamide] | prevented | did not prevent | did not influence | as efficient as JNJ 38877605 in preventing | prevented | restored the response | overcame | restored | inhibit | did not improve | inhibited | did not interfere

Reference: PMC5045412, “Inhibition of pro-HGF activation by SRI31215, a novel approach to block oncogenic HGF/MET signaling” (Oncotarget, 2016)
